From patent US8846345B2, “Recombinant cell line” (The Queen's University of Belfast, priority 2002, dated 2014)

B1: IL-12 β-chain (p40), carboxyterminally hexahistidine-tagged (HIBERNIA.1 cells, pIND(SP1)-p40H) (ligand)
chain: IWELKKDVYVVELDWYPDAPGEMVVLTCDTPEEDGITWTLDQSSEVLGSGKTLTIQVKEFGDAGQYTCHKGGEVLSHSLLLLHKKEDGIWSTDILKDQKEPKNKTFLRCEAKNYSGRFTCWWLTTISTDLTFSVKSSRGSSDPQGVTCGAATLSAERVRGDNKEYEYSVECQEDSACPAAEESLPIEVMVDAVHKLKYENYTSSFFIRDIIKPDPPKNLQLKPLKNSRQVEVSWEYPDTWSTPHSYFSLTFCVQVQGKSKREKKDRVFTDKTSATVICRKNASISVRAQDRYYSSSWSEWASVPCSHHHHHH
notes: mature; Secreted by HIBERNIA.1 cells as a monomer (about 40 kD) and as a disulfide-bonded homodimer (about 80 kD); also called β chain homodimer (80 kD form)
B2: IL-12 α-chain (p35), carboxyterminal hexahistidine-tagged (ligand)
chain: RNLPVATPDPGMFPCLHHSQNLLRAVSNMLQKARQTLEFYPCTSEEIDHEDITKDKTSTVEACLPLELTKNESCLNSRETSFITNGSCLASRKTSFMMALCLSSIYEDLKMYQVEFKTMNAKLLMDPKRQIFLDQNMLAVIDELMQALNFNSETVPQKSSLEEPDFYKTKIKLCILLHAFRIRAVTIDRVMSYLNASHHHHHH
notes: mature; Expressed in EcR293 or HIBERNIA.1 cells from pIND-p35H or pIND(SP1)-p35H; N-glycosylated; also called p35H; His-tagged α-chain

What was measured:
EcR293 cells = test: MTT cytotoxicity test; assay type: cell-based, human
Description: The mitochondrial ...MTT test is widely use as a cytotoxicity test. This test is principally based on the propensity of mitochondrial dehydrogenases to cleave the tetrazolium ring of. The viability of cells is proportional to the activity of mitochondrial dehydrogenases. Cleavage of the tetrazolium ring results in the formation of purple formazan crystals. We used the MTT assay to quantify cytotoxicity of celecoxib on EcR293 cells. The test was performed in 96-well plates in which 10^5 cells per well were plated the day before application of the MTT test. Following addition of celecoxib to the culture medium, cells were induced by ponasterone A, as explained before. After 16 hours of induction, the MTT reagent (10 μl of 100 mg/ml stock solution) was added to the cells. Two hours later, the medium was removed, and the cells were dissolved in DMSO. DMSO solubilizes formazan crystals. Absorbance was measured at 550 nm using a 96-well plate spectrophotometer.

[1] = test system: IL-12 α and β monomer forms; test: Inhibitor assay: secretion of IL-12 α and β monomer forms; conditions: 16 hr treatment
mRNA of IL-12 = test: Effect on IL-12 mRNA; assay type: cell-based, human
[2] = molecular target: the molecule itself; test: non-reducing SDS-PAGE and anti-β-chain immunoblot of secreted fraction
[3] = molecular target: the molecule itself; test: non-reducing SDS-PAGE of medium of recombinant cell lines secreting the α chain
[4] = molecular target: B1; test: co-expression; non-reducing and reducing SDS-PAGE with anti-α-chain and anti-β-chain immunoblots

Molecule: CNc1ccc2oc(C[C@H]3O[C@@]4(CC[C@H]3C)O[C@H]([C@H](C)C(=O)c3ccc[nH]3)[C@H](C)C[C@H]4C)nc2c1C(=O)O [A23187]
- concentration at which toxicity was observed (MTT test) (EcR293 cells; 16 hr test period): > 10 µM
- secretion of IL-12 α and β monomer forms [1]: suppressed by neither

Molecule: C/C=C(/C)C(=O)O[C@H]1C(C)=C2[C@H]([C@@H]1OC(=O)CCCCCCC)[C@@](C)(OC(C)=O)C[C@H](OC(=O)CCC)[C@@]1(O)[C@H]2OC(=O)[C@@]1(C)O [thapsigargin]
- concentration at which toxicity was observed (MTT test) (EcR293 cells; human, 16 h): 5 to 10 µM
- secretion of IL-12 α and β monomer forms [1]: suppressed by neither

Molecule: Cc1ccc(-c2cc(C(F)(F)F)nn2-c2ccc(S(N)(=O)=O)cc2)cc1 [Celecoxib, 4-[5-(4-methylpheny)-3-(trifluoromethyl)-IH-pyrazol-I-yl]benzenesulfonamide]
- concentration at which toxicity was observed (MTT test) (EcR293 cells; human, 16 h): ≥ 100 µM
- effect on mRNA of IL-12 (mRNA of IL-12): no effect

Molecule: B1
- binding result [2]: binds

Molecule: B2
- binding result [3]: no binding
- binding result [4]: binds
